Test results published in patent US11925166B2, “Cacao cell suspension protocol” (Mars, Incorporated, priority 2019, dated 2024).

Tested on: fungi and bacteria on leaf explants
Experiment: Leaf disinfection of cacao leaf explants (hypochlorite under vacuum)
Set-up: species or system Theobroma cacao; cacao leaf disinfection: dose or concentration left out as unconfirmed
Method: The leaves were cleaned with soap and rinsed with distilled sterile water for three times. Afterwards, the leaves were cut in pieces in sizes of 2 cm^2, disinfected by immersion in alcohol 70% for five minutes, and rinsed three times with ultrapure sterile water. Then, the leaf explants were immersed in 1% calcium hypochlorite or 20% sodium hypochlorite for 50-60 minutes in vacuum condition (70 k-pascal) and rinsed 3-5 times with ultrapure sterile water.

[Ca+2].[O-]Cl.[O-]Cl [calcium hypochlorite]
leaf death after disinfection (high concentration of calcium hypochlorite): high percentage of leaf death | cacao leaf disinfection (low concentration of calcium hypochlorite for 40 minutes, with vacuum): best treatment for cacao leaf disinfection
